From patent US20240108744A1, “AURISTATIN DERIVATIVES AND CONJUGATES THEREOF” (priority 2022, published 2024)
Like-named read-outs stand apart in the source and are kept apart here. Square brackets hold non-standard residues; d marks the D form. Peptide text beside a SMILES is read from it. * marks the point of attachment. Dolaproine = CO[C@@H]([C@@H]1CCCN1)[C@@H](C)C(=O)O; Phe(βS-OH) = N[C@H](C(=O)O)[C@@H](O)c1ccccc1; Dil = CC[C@H](C)[C@H](NC)[C@@H](CC(=O)O)OC; X1 = CC(C)[C@@H](C(=O)*)N(C)CCS; X2 = CSCCN(C)[C@H](C(=O)*)C(C)C

Experiments:
Format in all cases: cell-based
[1] = system: NCI-N87; assay: In vitro cytotoxicity (CCK-8) in NCI-N87 cells; conditions: Homo sapiens, NCI-N87 cell line, 120 hours incubation
Description: (§1) Cytotoxic potencies of the compounds are assessed in flat-bottomed 96-well cell culture plates (Corning Costar) using cell counting Kit-8 (CCK-8) assay (Shanghai Life Lab Biotech Co., Ltd.). Briefly, human tumor cells (1,000-10,000 cells/well, depending on the cell line), in the appropriate culture medium are incubated, with the compounds, or with conjugates in the presence or absence of an excess of the corresponding unconjugated antibodies, for 120 hours, at 37° C., 5% CO2.
(§2) Dispensed 175 μL cell suspension in 96-well plate at 1500 cells per well and incubate for 24 hours in a humidified incubator (37° C., 5% CO2). Added 25 μL various concentrations of compound as a 5× solution into the cell culture medium (Fetal bovine serum, Invitrogen) in the plate and incubated for 120 hours in the incubator. Thawed CCK-8 on the bench top or in a 37° C. water bath, added 10 μL of CCK-8 to each well of the incubated plate (be careful not introducing air bubbles into the wells since they would interfere with the O. D. reading) and then further incubated for 1-4 hours in the incubator. Measured the absorbance at 450 nm using a SpectraMax i3x Microplate Reader and calculated the cell inhibition rate. The IC50 curves were generated along with the IC50 values by using GraphPad Prism software.

[2] = system: NCI-H2110; assay: In vitro cytotoxicity (CCK-8) in NCI-H2110 cells; conditions: Homo sapiens
Description: as §1, §2

[3] = system: OVCAR-3; assay: In vitro cytotoxicity (CCK-8) in OVCAR-3 cells; conditions: Homo sapiens
Description: as §1, §2

[4] = system: SK-BR-3; assay: In vitro cytotoxicity (CCK-8) in SK-BR-3 cells; conditions: Homo sapiens, SK-BR-3 cell line, 120 hours incubation
Description: as §1, §2

[5] = system: HCC 827; assay: In vitro cytotoxicity (CCK-8) in HCC 827 cells; conditions: Homo sapiens
Description: as §1, §2

[6] = system: SK-OV-3; assay: In vitro cytotoxicity (CCK-8) in SK-OV-3 cells; conditions: Homo sapiens
Description: as §1, §2

[7] = system: BR 474; assay: In vitro cytotoxicity (CCK-8) in BR 474 cells; conditions: Homo sapiens, BR 474 cell line, 120 hours incubation
Description: as §1, §2

[8] = system: JMT-1; assay: In vitro cytotoxicity (CCK-8) in JMT-1 cells; conditions: Homo sapiens, JMT-1 cell line, 120 hours incubation
Description: as §1, §2

[9] = NCI-H2110 cell line, 120 hours incubation, CCK-8, read-out: IC50
[10] = OVCAR-3 cell line, 120 hours incubation, CCK-8, read-out: IC50
[11] = HCC827, HCC 827 cell line, 120 hours incubation, CCK-8, read-out: IC50
[12] = SK-OV-3 cell line, 120 hours incubation, CCK-8, read-out: IC50

Row | Structure (SMILES) | IC50 [1] | IC50 [2, 9] | IC50 [3, 10] | IC50 [4] | IC50 [5, 11] | IC50 [6, 12] | IC50 [7] | IC50 [8] | IC50 ([2]; NCI-H2110, 120 h) | IC50 ([3]; OVCAR-3, 120 h) | IC50 ([5]; HCC827, 120 h) | IC50 ([6]; SK-OV-3, 120 h)
1 | CC[C@@]1(O)C(=O)OCc2c1cc1n(c2=O)Cc2cc3c(CCCCO)c(C)c(F)cc3nc2-1 | 2.6 nM | 0.85 nM | 0.1 nM | 0.014 nM | 0.78 nM | 0.36 nM | > 1000 nM | 14 nM | – | – | – | –
2 | CC[C@@]1(O)C(=O)OCc2c1cc1n(c2=O)Cc2c-1nc1cc(F)c(C)c3c1c2[C@@H](NC(=O)CO)CC3 | – | – | – | – | – | – | – | – | 4.1 nM | 0.2 nM | 1.8 nM | 3.6 nM
3 | CC[C@H](C)[C@@H]([C@@H](CC(=O)N1CCC[C@H]1[C@H](OC)[C@@H](C)C(=O)N[C@H](C)[C@@H](O)c1ccccc1)OC)N(C)C(=O)[C@@H](NC(=O)[C@H](C(C)C)N(C)CCS)C(C)C | 4.8 nM | 10 nM | – | 1.7 nM | – | 7.7 nM | 5.1 nM | 2.1 nM | – | – | – | –
4 | CC[C@H](C)[C@@H]([C@@H](CC(=O)N1CCC[C@H]1[C@H](OC)[C@@H](C)C(=O)N[C@H](C)[C@@H](O)c1ccccc1)OC)N(C)C(=O)[C@@H](NC(=O)[C@H](C(C)C)N(C)CCSC)C(C)C | 0.94 nM | – | – | 0.41 nM | – | – | – | 0.49 nM | – | – | – | –
5 | CC[C@H](C)[C@@H]([C@@H](CC(=O)N1CCC[C@H]1[C@H](OC)[C@@H](C)C(=O)N[C@H](C(=O)O)[C@@H](O)c1ccccc1)OC)N(C)C(=O)[C@@H](NC(=O)[C@H](C(C)C)N(C)CCS)C(C)C (X1-V[Dil][Dolaproine][Phe(βS-OH)]-OH) | – | 12 nM | 67.6 nM | – | 108 nM | 38 nM | – | – | – | – | – | –
6 | CC[C@H](C)[C@@H]([C@@H](CC(=O)N1CCC[C@H]1[C@H](OC)[C@@H](C)C(=O)N[C@H](C(=O)O)[C@@H](O)c1ccccc1)OC)N(C)C(=O)[C@@H](NC(=O)[C@H](C(C)C)N(C)CCSC)C(C)C (X2-V[Dil][Dolaproine][Phe(βS-OH)]-OH) | 32.3 nM | – | – | 13.6 nM | – | – | – | 36.1 nM | – | – | – | –
